Data: US20070015183A1, “Biomarkers for huntington's disease” (The General Hospital Corporation, priority 2005, published 2007)

Experiments:
[1] = system: Huntington's disease symptoms; conditions: HD patients, dose-finding study not powered to detect alterations in symptoms or progression
Description: (§1) Peripheral blood samples were collected from 62 HD subjects and 53 age- and gender-matched healthy controls. The HD group included a cohort of 9 early asymptomatic carriers of the gene mutation, as determined by genetic testing, consisting of 5 females and 4 males with the average age of 22.5±2.6 years. An additional group of 21 late presymptomatic carriers of the HD mutation was also included in the study. Of these, 11 were females and 10 were males with the average age of 39±6.1. An additional 32 patients were symptomatic, 17 females and 15 males, with the average age of 49.6±5.9. The determination of the neurological status of the HD patients utilized the Huntington's Disease Rating Scale (UHDRS) performed by an experienced HD neurologist. All of the symptomatic patients were in Stage I or II of disease, as determined by the total functional capacity scores (TFC 7-12). All samples were obtained in accordance with the Institutional Review Boards and participants gave written informed consent. Blood samples were also obtained from 12 symptomatic patients (7 males and 5 females) participating in a dose-finding study of the HDAC inhibitor, sodium phenylbutyrate (SPB 11, Scandinavian Designs, Sellersville, Pa.) at Oregon Health and Science University. The dosage of sodium phenylbutyrate in these subjects ranged from 12 to 18 grams per day administered in 3 doses.

[2] = HD patients, as a result of phenylbutyrate treatments
Description: as §1

[3] = system: 12-gene marker set (ANXA1, AXOT, CAPZA1, HIF1A, JJAZ1, P2Y5, PCNP, ROCK1, SF3B1, SP3, TAF7, YIPPEE) mRNA in blood; conditions: 12 HD patients, after 4 weeks of treatment, QRT-PCR, P<0.05
Description: as §1

[4] = system: transgenic mouse models of HD; conditions: Gardian et al., J. Biol. Chem. 280: 556-563, 2005; cited from earlier work

total and differential cell blood counts [2]: no consistent differences
SMILES: O=C([O-])CCCc1ccccc1.[Na+] [phenylbutyrate, sodium phenylbutyrate]
symptomatic effects [1]: no significant symptomatic effects
expression of each individual gene of the marker set in blood after treatment compared to untreated samples [3]: 8 out of 12 genes were significantly decreased and statistically significant decrease in expression of 8 out of 12 genes
neuroprotective effects [4]: significant neuroprotective effects
